Experimental data as given in US8569281B2, “Compounds and their administration for treating a neurodegenerative disease as well as a method for identifying a compound capable of inhibiting a kinase, such as LRRK” (Medical Research Council Technology, priority 2010, dated 2013).

Target: LRRK2 (Homo sapiens (Human), UniProt Q5S007)
Experiment: In Vitro LRRK2 Assay (LabChip 3000, fluorescently-labeled peptide substrate)
Format: biochemical
Details: ATP 130 μM, substrate 1 μM, 2 hours, ambient temperature; LRRK2 variant not given; read-out: Ki (μM), affinity values for LRRK2

Sequence of LRRK2 (Q5S007 whole entry G2019S): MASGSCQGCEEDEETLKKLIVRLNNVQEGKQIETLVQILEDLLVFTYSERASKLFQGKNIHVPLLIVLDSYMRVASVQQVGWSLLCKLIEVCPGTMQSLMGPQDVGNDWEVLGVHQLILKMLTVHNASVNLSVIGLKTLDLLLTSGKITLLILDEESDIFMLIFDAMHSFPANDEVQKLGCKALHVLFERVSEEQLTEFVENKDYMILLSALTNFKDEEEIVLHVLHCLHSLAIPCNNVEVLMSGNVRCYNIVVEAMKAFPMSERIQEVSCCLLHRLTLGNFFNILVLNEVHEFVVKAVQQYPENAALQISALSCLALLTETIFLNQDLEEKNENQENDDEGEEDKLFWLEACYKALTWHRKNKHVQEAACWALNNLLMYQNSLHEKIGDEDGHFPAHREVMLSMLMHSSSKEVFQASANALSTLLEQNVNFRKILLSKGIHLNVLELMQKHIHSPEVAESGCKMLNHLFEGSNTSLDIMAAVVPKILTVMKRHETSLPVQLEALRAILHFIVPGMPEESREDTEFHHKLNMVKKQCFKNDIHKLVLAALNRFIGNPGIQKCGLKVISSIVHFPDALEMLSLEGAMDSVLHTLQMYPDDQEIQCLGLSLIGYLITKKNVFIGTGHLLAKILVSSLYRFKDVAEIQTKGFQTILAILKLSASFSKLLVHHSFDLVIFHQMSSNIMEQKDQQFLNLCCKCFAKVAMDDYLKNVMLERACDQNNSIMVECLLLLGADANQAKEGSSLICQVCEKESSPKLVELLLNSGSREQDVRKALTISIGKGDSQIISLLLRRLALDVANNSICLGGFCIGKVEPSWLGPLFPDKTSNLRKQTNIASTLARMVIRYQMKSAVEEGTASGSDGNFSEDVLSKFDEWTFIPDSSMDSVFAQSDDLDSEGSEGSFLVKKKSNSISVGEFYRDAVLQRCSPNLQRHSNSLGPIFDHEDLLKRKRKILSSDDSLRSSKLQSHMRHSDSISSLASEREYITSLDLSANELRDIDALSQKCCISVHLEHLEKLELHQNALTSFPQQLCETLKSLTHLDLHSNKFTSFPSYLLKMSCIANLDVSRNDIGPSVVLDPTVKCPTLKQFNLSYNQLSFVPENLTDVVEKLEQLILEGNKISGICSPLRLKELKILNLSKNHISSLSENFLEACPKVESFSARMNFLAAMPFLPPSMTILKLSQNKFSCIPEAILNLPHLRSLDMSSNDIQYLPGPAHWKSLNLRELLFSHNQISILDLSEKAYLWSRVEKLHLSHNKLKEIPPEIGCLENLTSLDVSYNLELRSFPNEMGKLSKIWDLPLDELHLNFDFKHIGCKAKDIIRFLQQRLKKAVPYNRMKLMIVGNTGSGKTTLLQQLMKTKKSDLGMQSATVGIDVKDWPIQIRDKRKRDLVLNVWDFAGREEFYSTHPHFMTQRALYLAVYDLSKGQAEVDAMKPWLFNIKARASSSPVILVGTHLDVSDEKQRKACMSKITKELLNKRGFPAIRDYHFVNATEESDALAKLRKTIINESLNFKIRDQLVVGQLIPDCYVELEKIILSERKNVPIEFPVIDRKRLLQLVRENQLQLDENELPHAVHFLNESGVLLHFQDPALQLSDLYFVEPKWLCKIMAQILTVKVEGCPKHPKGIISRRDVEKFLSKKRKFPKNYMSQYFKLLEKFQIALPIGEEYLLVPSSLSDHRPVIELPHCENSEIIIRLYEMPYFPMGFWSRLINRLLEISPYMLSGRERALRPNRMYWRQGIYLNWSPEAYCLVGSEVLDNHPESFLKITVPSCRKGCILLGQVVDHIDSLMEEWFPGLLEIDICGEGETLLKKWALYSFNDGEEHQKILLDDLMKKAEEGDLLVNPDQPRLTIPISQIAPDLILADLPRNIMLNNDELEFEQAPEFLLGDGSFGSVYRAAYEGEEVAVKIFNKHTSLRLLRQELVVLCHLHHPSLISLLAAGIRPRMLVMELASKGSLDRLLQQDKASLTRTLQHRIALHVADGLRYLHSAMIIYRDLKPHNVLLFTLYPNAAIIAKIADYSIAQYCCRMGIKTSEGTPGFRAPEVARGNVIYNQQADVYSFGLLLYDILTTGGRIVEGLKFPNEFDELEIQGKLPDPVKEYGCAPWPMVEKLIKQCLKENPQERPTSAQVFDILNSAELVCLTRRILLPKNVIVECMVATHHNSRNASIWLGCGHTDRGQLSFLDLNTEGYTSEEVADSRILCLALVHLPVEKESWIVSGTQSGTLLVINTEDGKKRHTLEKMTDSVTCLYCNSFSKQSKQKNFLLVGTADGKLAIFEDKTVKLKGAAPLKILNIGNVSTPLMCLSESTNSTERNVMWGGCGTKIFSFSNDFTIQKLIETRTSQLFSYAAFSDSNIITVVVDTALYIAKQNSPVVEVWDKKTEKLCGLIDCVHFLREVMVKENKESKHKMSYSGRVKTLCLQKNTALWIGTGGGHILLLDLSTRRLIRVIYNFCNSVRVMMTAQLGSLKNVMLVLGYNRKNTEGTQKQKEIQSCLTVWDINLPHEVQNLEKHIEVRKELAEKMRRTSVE

CC(=O)Nc1ccc(-c2cc(-c3n[nH]c4ccnc(OC5CCOCC5)c34)ccn2)cc1 [Example 210, N-(4-(4-(4-(tetrahydro-2H-pyran-4-yloxy)-1H-pyrazolo[4,3-c]pyridin-3-yl)pyridin-2-yl)phenyl)acetamide]
Ki: 0.011 µM

CNC(=O)c1cccc(-c2cc(-c3n[nH]c4ccnc(OC5CCOCC5)c34)ccn2)c1 [Example 211, N-methyl-3-(4-(4-(tetrahydro-2H-pyran-4-yloxy)-1H-pyrazolo[4,3-c]pyridin-3-yl)pyridin-2-yl)benzamide]
Ki: 0.015 µM

CN(C)C(=O)c1ccc(-c2cc(-c3n[nH]c4ccnc(OC5CCOCC5)c34)ccn2)cc1 [Example 212, N,N-dimethyl-4-(4-(4-(tetrahydro-2H-pyran-4-yloxy)-1H-pyrazolo[4,3-c]pyridin-3-yl)pyridin-2-yl)benzamide]
Ki: 0.009 µM

CCn1cc(-c2cc(-c3n[nH]c4ccnc(OC5CCOCC5)c34)ccn2)cn1 [Example 213, 3-(2-(1-ethyl-1H-pyrazol-4-yl)pyridin-4-yl)-4-(tetrahydro-2H-pyran-4-yloxy)-1H-pyrazolo[4,3-c]pyridine]
Ki: 0.012 µM

CC(C)Oc1nccc2[nH]nc(-c3cc(C(=O)N4CCCC4)n(C(C)C)c3)c12 [Example 216, [4-(4-Isopropoxy-1H-pyrazolo[4,3-c]pyridin-3-yl)-1-isopropyl-1H-pyrrol-2-yl]-pyrrolidin-1-yl-methanone]
Ki: 0.006 µM

CC(C)n1cc(-c2n[nH]c3ccnc(OC4CCOCC4)c23)cc1C(=O)N1CCC1 [Example 218, Azetidin-1-yl-{1-isopropyl-4-[4-(tetrahydro-pyran-4-yloxy)-1H-pyrazolo[4,3-c]pyridin-3-yl]-1H-pyrrol-2-yl}-methanone]
Ki: 0.008 µM

CC(C)Oc1nccc2[nH]nc(-c3ccnc(C(=O)N4C[C@@H]5C[C@H]4CO5)c3)c12 [Example 220, [4-(4-Isopropoxy-1H-pyrazolo[4,3-c]pyridin-3-yl)-pyridin-2-yl]-(1S,4S)-2-oxa-5-aza-bicyclo[2.2.1]hept-5-yl-methanone]
Ki: 0.384 µM

CC(C)n1cc(-c2n[nH]c3ccnc(OC4CCOC4)c23)cn1 (centres unmarked) [Example 224, 3-(1-Isopropyl-1H-pyrazol-4-yl)-4-(tetrahydro-furan-3-yloxy)-1H-pyrazolo[4,3-c]pyridine]
Ki: 0.007 µM

COc1nccc2[nH]nc(-c3cnn(C4CCOC4)c3)c12 (centres unmarked) [Example 234, 4-methoxy-3-(1-(tetrahydrofuran-3-yl)-1H-pyrazol-4-yl)-1H-pyrazolo[4,3-c]pyridine]
Ki: 0.023 µM

CNC(=O)c1cccc(-c2[nH]nc3cc(C)nc(OC)c23)c1 [Example 235, 3-(4-methoxy-6-methyl-1H-pyrazolo[4,3-c]pyridin-3-yl)-N-methylbenzamide]
Ki: 0.199 µM

COc1nccc2[nH]nc(-c3ccnc(N4C[C@@H](C)O[C@@H](C)C4)c3)c12 [Example 238, (2S,6R)-4-(4-(4-methoxy-1H-pyrazolo[4,3-c]pyridin-3-yl)pyridin-2-yl)-2,6-dimethylmorpholine]
Ki: 0.025 µM
